Test results published in article PMC8329922, “Credentialing and Pharmacologically Targeting PTP4A3 Phosphatase as a Molecular Target for Ovarian Cancer” (Biomolecules, 2021).

How the values were obtained:
COV362 = assay: Cytotoxicity, 3D spheroids, CellTiter Glo 3D; assay type: cell-based; details: Homo sapiens, 48 h exposure, read-out: EC50 (μM ± SEM) COV362
OVSAHO = assay: Cytotoxicity, 3D spheroids, CellTiter Glo 3D; assay type: cell-based; details: Homo sapiens, 48 h exposure, read-out: EC50 (μM ± SEM) OVSAHO
OVCAR4 = assay: Cytotoxicity, 3D spheroids, CellTiter Glo 3D; assay type: cell-based; details: Homo sapiens, OVCAR-4, 48 h exposure, read-out: EC50 (μM ± SEM) OVCAR4
Kuramochi = assay: Cytotoxicity, 3D spheroids, CellTiter Glo 3D; assay type: cell-based; details: Homo sapiens, 48 h exposure, read-out: EC50 (μM ± SEM) Kuramochi
COV362-47R = assay: Cytotoxicity, 3D spheroids, CellTiter Glo 3D; assay type: cell-based; details: Homo sapiens, 48 h exposure, carboplatin resistant line, read-out: EC50 (μM ± SEM) COV362-47R
V581 = assay: Cytotoxicity, 3D spheroids, CellTiter Glo 3D; assay type: cell-based; details: Homo sapiens, 48 h exposure, patient-derived cell line, read-out: EC50 (μM ± SEM) V581
recombinant human PTP4A3 = target: T1, recombinant human PTP4A3 (Homo sapiens, UniProt O75365); assay: In vitro phosphatase inhibition (DiFMUP substrate); assay type: biochemical; details: Mean ± SEM, N = 3, * N = 6, ** N = 8; DiFMUP 12 μM, 25 °C, 30 min; read-out: in vitro IC50 against recombinant human PTP4A3
T1 construct: The cDNA for the full-length ptp4a3 was obtained from OriGene (SC308739); His6 (N); host or cells: E. coli BL21 (DE3)

COV362 parent line = assay: Viability assay with 3-(4,5-dimethylthiazol-2-yl)-2,5-diphenyltetrazolium bromide; assay type: cell-based, human; details: MTT viability assay, read-out: EC50 (concentration that caused a 50% cytotoxicity)
COV362-47R cells = assay: as above; assay type: cell-based, human; details: MTT viability assay, read-out: EC50 (concentration that caused a 50% cytotoxicity)

T1 sequence (O75365 whole entry): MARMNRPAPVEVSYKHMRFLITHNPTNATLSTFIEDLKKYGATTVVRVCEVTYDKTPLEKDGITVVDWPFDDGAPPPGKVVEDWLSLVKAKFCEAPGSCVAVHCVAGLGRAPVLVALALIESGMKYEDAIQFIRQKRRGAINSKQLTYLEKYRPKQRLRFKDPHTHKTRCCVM

Structure (SMILES) | EC50 (COV362) [µM] | EC50 (OVSAHO) [µM] | EC50 (OVCAR4) [µM] | EC50 (Kuramochi) [µM] | EC50 (COV362-47R) [µM] | EC50 (V581) [µM] | IC50 (recombinant human PTP4A3) [µM] | EC50 (COV362 parent line) [µM] | EC50 (COV362-47R cells) [µM]
N=C1C(=O)NC(=O)c2c(-c3ccccc3)csc21 [EJR-912-41] | 31.6 ± 6.8 | 38.7 ± 1.7 | 26.9 ± 3.9 | 7 | > 50 | > 50 | 0.0637 ± 0.0073 | – | –
O=C1NC(=O)c2c(-c3ccccc3)csc2C1=O [EJR-912-43] | > 50 | > 50 | > 50 | > 50 | > 50 | > 50 | 0.0537 ± 0.0124 | – | –
Cc1cc2c(s1)C(=O)C(=O)NC2=O [EJR-912-50] | > 50 | > 50 | > 50 | > 50 | > 50 | > 50 | 0.0606 ± 0.006 | – | –
Cc1cc2c(s1)C(=N)C(=O)NC2=O [EJR-912-57] | 28.3 ± 3.1 | > 50 | > 25 | > 50 | > 50 | > 50 | 0.0897 ± 0.014 | – | –
CN1C(=O)C(=N)c2sc(-c3ccccc3)cc2C1=O [NRT-870-59] | > 50 | > 50 | > 50 | 30.6 | > 50 | > 50 | – | – | –
O=C(c1cc(Cc2n[nH]c(=O)c3ccccc23)ccc1F)N1CCN(C(=O)C2CC2)CC1 [Olaparib] | > 50 | > 50 | > 50 | > 50 | > 50 | > 50 | – | – | –
CC(=O)O[C@H]1C(=O)[C@@]2(C)[C@H]([C@H](OC(=O)c3ccccc3)[C@]3(O)C[C@H](OC(=O)[C@H](O)[C@@H](NC(=O)c4ccccc4)c4ccccc4)C(C)=C1C3(C)C)[C@]1(OC(C)=O)CO[C@@H]1C[C@@H]2O [Paclitaxel, reference compound] | > 5 | > 5 | > 5 | > 5 | > 5 | > 5 | – | – | –
CC[C@@]1(O)C(=O)OCc2c1cc1n(c2=O)Cc2cc3c(CN(C)C)c(O)ccc3nc2-1 [Topotecan, reference compound] | 2.5 ± 0.7 | 2.5 ± 1.1 | 2.5 ± 0.8 | – | 25.3 ± 9.8 | – | – | – | –
C[C@]1(c2nc3c(C(N)=O)cccc3[nH]2)CCCN1 [Veliparib, reference compound] | > 50 | > 50 | > 50 | > 50 | > 50 | > 50 | – | – | –
N.N.O=C([O-])C1(C(=O)[O-])CCC1.[Pt+2] [carboplatin] | – | – | – | – | – | – | – | ~20 | ~200
